US12139492B2 (Endotarget Inc., priority 2021, dated 2024)

Tests used:
[1] = system: Mino cells; experiment: Antiproliferative effect, MTS cell viability assay, Mino cells; format: cell-based; details: Homo sapiens, MINO, Mino mantle cell lymphoma cells; read-out: IC50 (anti-proliferation) Mino cells
In short: (§1)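 Mino and JeKo-1 mantle B-cell lymphoma lines were exposed to compound at 0, 0.001, 0.01, 0.1, 1 and 10 μM for 72 h. Viability was read by MTS reduction to formazan, measured as absorbance at 490 nm.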

[2] = system: JeKo-1 cells; experiment: Antiproliferative effect, MTS cell viability assay, JeKo-1 cells; format: cell-based; details: Homo sapiens; JeKo-1 mantle cell lymphoma cells; read-out: IC50 (anti-proliferation) JeKO-1 cells
In short: as §1

[3] = molecular target: BTK (Homo sapiens, UniProt Q06187); experiment: Degradation of BTK protein in Namalwa cells (Western blot; DC50, Dmax); details: for DC50: BTK degradation, cell line not given
BTK, sequence (Q06187 whole entry): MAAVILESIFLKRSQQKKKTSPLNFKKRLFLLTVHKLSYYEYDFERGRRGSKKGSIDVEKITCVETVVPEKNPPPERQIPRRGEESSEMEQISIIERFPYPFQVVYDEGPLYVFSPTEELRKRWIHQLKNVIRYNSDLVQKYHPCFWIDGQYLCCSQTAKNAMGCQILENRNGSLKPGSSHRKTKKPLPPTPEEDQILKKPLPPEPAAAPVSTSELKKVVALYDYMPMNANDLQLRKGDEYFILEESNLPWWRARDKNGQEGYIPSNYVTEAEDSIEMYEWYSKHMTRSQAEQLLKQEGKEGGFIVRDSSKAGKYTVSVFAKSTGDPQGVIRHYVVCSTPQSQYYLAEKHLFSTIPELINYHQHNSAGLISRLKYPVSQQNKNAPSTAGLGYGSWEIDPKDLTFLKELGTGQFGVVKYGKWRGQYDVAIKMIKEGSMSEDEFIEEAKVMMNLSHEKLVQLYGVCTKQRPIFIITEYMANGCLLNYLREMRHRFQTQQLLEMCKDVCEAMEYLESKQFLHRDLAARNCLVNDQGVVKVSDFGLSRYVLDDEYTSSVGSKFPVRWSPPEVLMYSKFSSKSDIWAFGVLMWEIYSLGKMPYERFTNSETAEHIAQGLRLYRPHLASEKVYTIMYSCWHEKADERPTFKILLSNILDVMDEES

| SMILES | Dmax [3] [%] | DC50 [3] [µM] | IC50 [1] [µM] | IC50 [2] [µM] |
| --- | --- | --- | --- | --- |
| NC(=O)c1c(-c2ccc(Oc3ccccc3)cc2)nn2c1NCCC2C1CCN(C(=O)N2CCC(CN3CCC(c4ccc5c(c4)C(=O)N(C4CCC(=O)NC4=O)C5=O)CC3)CC2)CC1 (stereo not shown) [Compound 279, 7-(1-(4-((4-(2-(2,6-dioxopiperidin-3-yl)-1,3-dioxoisoindolin-5-yl)piperidin-1-yl)methyl)piperidine-1-carbonyl)piperidin-4-yl)-2-(4-phenoxyphenyl)-4,5,6,7-tetrahydropyrazolo[1,5-a]pyrimidine-3-carboxamide] | > 90 | 0.01 to 0.05 | 1 to 10 | 1 to 10 |
| NC(=O)c1c(-c2ccc(Oc3ccccc3)cc2)nn2c1NCCC2C1CCN(C(=O)N2CCN(CCN3CCN(c4ccc5c(c4)C(=O)N(C4CCC(=O)NC4=O)C5=O)CC3)CC2)CC1 (stereo not shown) [Compound 281, 7-(1-(4-(2-(4-(2-(2,6-dioxopiperidin-3-yl)-1,3-dioxoisoindolin-5-yl)piperazin-1-yl)ethyl)piperazine-1-carbonyl)piperidin-4-yl)-2-(4-phenoxyphenyl)-4,5,6,7-tetrahydropyrazolo[1,5-a]pyrimidine-3-carboxamide] | > 90 | 0.01 to 0.05 | 1 to 10 | 1 to 10 |
| NC(=O)c1c(-c2ccc(Oc3ccccc3)cc2)nn2c1NCCC2C1CCN(C(=O)N2CCN(CCN3CCN(c4ccc5c(c4)CN(C4CCC(=O)NC4=O)C5=O)CC3)CC2)CC1 (stereo not shown) [Compound 282, 7-(1-(4-(2-(4-(2-(2,6-dioxopiperidin-3-yl)-1-oxoisoindolin-5-yl)piperazin-1-yl)ethyl)piperazine-1-carbonyl)piperidin-4-yl)-2-(4-phenoxyphenyl)-4,5,6,7-tetrahydropyrazolo[1,5-a]pyrimidine-3-carboxamide] | > 90 | 0.01 to 0.05 | 1 to 10 | > 10 |
| NC(=O)c1c(-c2ccc(Oc3ccccc3)cc2)nn2c1NCCC2C1CCN(C(=O)N2CCN(CCC3CCN(c4ccc5c(c4)C(=O)N(C4CCC(=O)NC4=O)C5=O)CC3)CC2)CC1 (stereo not shown) [Compound 283, 7-(1-(4-(2-(1-(2-(2,6-dioxopiperidin-3-yl)-1,3-dioxoisoindolin-5-yl)piperidin-4-yl)ethyl)piperazine-1-carbonyl)piperidin-4-yl)-2-(4-phenoxyphenyl)-4,5,6,7-tetrahydropyrazolo[1,5-a]pyrimidine-3-carboxamide] | > 75 | 0.01 to 0.05 | 1 to 10 | > 10 |
| NC(=O)c1c(-c2ccc(Oc3ccccc3)cc2)nn2c1NCCC2C1CCN(C(=O)N2CCN(CCC3CCN(c4ccc5c(c4)CN(C4CCC(=O)NC4=O)C5=O)CC3)CC2)CC1 (stereo not shown) [Compound 284, 7-(1-(4-(2-(1-(2-(2,6-dioxopiperidin-3-yl)-1-oxoisoindolin-5-yl)piperidin-4-yl)ethyl)piperazine-1-carbonyl)piperidin-4-yl)-2-(4-phenoxyphenyl)-4,5,6,7-tetrahydropyrazolo[1,5-a]pyrimidine-3-carboxamide] | > 75 | 0.01 to 0.05 | 1 to 10 | 1 to 10 |
| NC(=O)c1c(-c2ccc(Oc3ccccc3)cc2)nn2c1NCCC2C1CCN(C(=O)N2CCC(CCN3CCC(c4ccc5c(c4)C(=O)N(C4CCC(=O)NC4=O)C5=O)CC3)CC2)CC1 (stereo not shown) [Compound 285, 7-(1-(4-(2-(4-(2-(2,6-dioxopiperidin-3-yl)-1,3-dioxoisoindolin-5-yl)piperidin-1-yl)ethyl)piperidine-1-carbonyl)piperidin-4-yl)-2-(4-phenoxyphenyl)-4,5,6,7-tetrahydropyrazolo[1,5-a]pyrimidine-3-carboxamide] | > 75 | > 0.05 | 1 to 10 | 1 to 10 |
| NC(=O)c1c(-c2ccc(Oc3ccccc3)cc2)nn2c1NCCC2C1CCN(C(=O)N2CCC(CCN3CCC(c4ccc5c(c4)CN(C4CCC(=O)NC4=O)C5=O)CC3)CC2)CC1 (stereo not shown) [Compound 286, 7-(1-(4-(2-(4-(2-(2,6-dioxopiperidin-3-yl)-1-oxoisoindolin-5-yl)piperidin-1-yl)ethyl)piperidine-1-carbonyl)piperidin-4-yl)-2-(4-phenoxyphenyl)-4,5,6,7-tetrahydropyrazolo[1,5-a]pyrimidine-3-carboxamide] | > 75 | > 0.05 | 1 to 10 | 1 to 10 |
| NC(=O)c1c(-c2ccc(Oc3ccccc3)cc2)nn2c1NCCC2C1CCN(C(=O)N2CCN(CCN3CCC(c4ccc5c(c4)C(=O)N(C4CCC(=O)NC4=O)C5=O)CC3)CC2)CC1 (stereo not shown) [Compound 287] | > 75 | 0.01 to 0.05 | 1 to 10 | > 10 |
| NC(=O)c1c(-c2ccc(Oc3ccccc3)cc2)nn2c1NCCC2C1CCN(C(=O)N2CCN(CCN3CCC(c4ccc5c(c4)CN(C4CCC(=O)NC4=O)C5=O)CC3)CC2)CC1 (stereo not shown) [Compound 288, 7-(1-(4-(2-(4-(2-(2,6-dioxopiperidin-3-yl)-1-oxoisoindolin-5-yl)piperidin-1-yl)ethyl)piperazine-1-carbonyl)piperidin-4-yl)-2-(4-phenoxyphenyl)-4,5,6,7-tetrahydropyrazolo[1,5-a]pyrimidine-3-carboxamide] | > 75 | 0.01 to 0.05 | 1 to 10 | 1 to 10 |
| NC(=O)c1c(-c2ccc(Oc3ccccc3)cc2)nn2c1NCC[C@H]2C1CCN(C(=O)N2CCN(CC3CCN(c4ccc5c(c4)C(=O)N(C4CCC(=O)NC4=O)C5=O)CC3)CC2)CC1 (stereo partly drawn) [Compound 289, (7S)-7-(1-(4-((1-(2-(2,6-dioxopiperidin-3-yl)-1,3-dioxoisoindolin-5-yl)piperidin-4-yl)methyl)piperazine-1-carbonyl)piperidin-4-yl)-2-(4-phenoxyphenyl)-4,5,6,7-tetrahydropyrazolo[1,5-a]pyrimidine-3-carboxamide] | > 90 | 0.01 to 0.05 | 1 to 10 | < 1 |

The next lines start with results.

| Dmax [3] [%] | DC50 [3] [µM] | SMILES | IC50 [1] [µM] | IC50 [2] [µM] |
| --- | --- | --- | --- | --- |
| > 90 | < 0.01 | NC(=O)c1c(-c2ccc(Oc3ccccc3)cc2)nn2c1NCCC2C1CCN(C(=O)N2CCC(CN3CCN(c4ccc5c(c4)C(=O)N(C4CCC(=O)NC4=O)C5=O)CC3)CC2)CC1 (stereo not shown) [Compound 275, 7-(1-(4-((4-(2-(2,6-dioxopiperidin-3-yl)-1,3-dioxoisoindolin-5-yl)piperazin-1-yl)methyl)piperidine-1-carbonyl)piperidin-4-yl)-2-(4-phenoxyphenyl)-4,5,6,7-tetrahydropyrazolo[1,5-a]pyrimidine-3-carboxamide] | 1 to 10 | 1 to 10 |
| > 90 | < 0.01 | NC(=O)c1c(-c2ccc(Oc3ccccc3)cc2)nn2c1NCCC2C1CCN(C(=O)N2CCC(CN3CCN(c4ccc5c(c4)CN(C4CCC(=O)NC4=O)C5=O)CC3)CC2)CC1 (stereo not shown) [Compound 276, 7-(1-(4-((4-(2-(2,6-dioxopiperidin-3-yl)-1-oxoisoindolin-5-yl)piperazin-1-yl)methyl)piperidine-1-carbonyl)piperidin-4-yl)-2-(4-phenoxyphenyl)-4,5,6,7-tetrahydropyrazolo[1,5-a]pyrimidine-3-carboxamide] | < 1 | < 1 |
| > 90 | < 0.01 | NC(=O)c1c(-c2ccc(Oc3ccccc3)cc2)nn2c1NCCC2C1CCN(C(=O)N2CCC(CC3CCN(c4ccc5c(c4)C(=O)N(C4CCC(=O)NC4=O)C5=O)CC3)CC2)CC1 (stereo not shown) [Compound 277, 7-(1-(4-((1-(2-(2,6-dioxopiperidin-3-yl)-1,3-dioxoisoindolin-5-yl)piperidin-4-yl)methyl)piperidine-1-carbonyl)piperidin-4-yl)-2-(4-phenoxyphenyl)-4,5,6,7-tetrahydropyrazolo[1,5-a]pyrimidine-3-carboxamide] | < 1 | 1 to 10 |
| > 90 | < 0.01 | NC(=O)c1c(-c2ccc(Oc3ccccc3)cc2)nn2c1NCCC2C1CCN(C(=O)N2CCC(CC3CCN(c4ccc5c(c4)CN(C4CCC(=O)NC4=O)C5=O)CC3)CC2)CC1 (stereo not shown) [Compound 278, 7-(1-(4-((1-(2-(2,6-dioxopiperidin-3-yl)-1-oxoisoindolin-5-yl)piperidin-4-yl)methyl)piperidine-1-carbonyl)piperidin-4-yl)-2-(4-phenoxyphenyl)-4,5,6,7-tetrahydropyrazolo[1,5-a]pyrimidine-3-carboxamide] | < 1 | 1 to 10 |
| > 90 | < 0.01 | NC(=O)c1c(-c2ccc(Oc3ccccc3)cc2)nn2c1NCCC2C1CCN(C(=O)N2CCC(CN3CCC(c4ccc5c(c4)CN(C4CCC(=O)NC4=O)C5=O)CC3)CC2)CC1 (stereo not shown) [Compound 280, 7-(1-(4-((4-(2-(2,6-dioxopiperidin-3-yl)-1-oxoisoindolin-5-yl)piperidin-1-yl)methyl)piperidine-1-carbonyl)piperidin-4-yl)-2-(4-phenoxyphenyl)-4,5,6,7-tetrahydropyrazolo[1,5-a]pyrimidine-3-carboxamide] | 1 to 10 | 1 to 10 |
| > 90 | < 0.01 | NC(=O)c1c(-c2ccc(Oc3ccccc3)cc2)nn2c1NCC[C@H]2C1CCN(C(=O)N2CCN(CC3CCN(c4ccc5c(c4)CN(C4CCC(=O)NC4=O)C5=O)CC3)CC2)CC1 (stereo partly drawn) [Compound 290, (7S)-7-(1-(4-((1-(2-(2,6-dioxopiperidin-3-yl)-1-oxoisoindolin 5-yl)piperidin-4-yl)methyl)piperazine-1-carbonyl)piperidin-4-yl)-2-(4-phenoxyphenyl)-4,5,6,7-tetrahydropyrazolo[1,5-a]pyrimidine-3-carboxamide] | 1 to 10 | < 1 |
